For one assay, the system named is isolated mitochondria. Description: Example 12: MPT induced by Ca^2+ overload and 3NP in isolated mitochondria. As for the experimental part:
3-Nitropropionic acid (3NP) is an irreversible inhibitor of succinate dehydrogenase in complex II of the electron transport chain. It is anticipated that the addition of 3NP (1 mM) to isolated mitochondria will cause the loss of mitochondrial membrane potential and the onset of MPT.

In a further assay the test system is Caco-2 cells. The assay is described as follows: Example 12: 3NP-induced mitochondrial depolarization (TMRM, CLSM). It counts as cell-based, human. Conditions: 3NP 10 mM, 4 hours. The procedure: (§1) Caco-2 cells will be treated with 3NP (10 mM) alone or in the presence of peptide conjugates (0.1 μM); aromatic-cationic peptides (an equivalent molar dose of aromatic-cationic peptide based on the concentration of the aromatic-cationic peptide administered in the peptide conjugate treatment group); SPN10(s) (an equivalent molar dose of SPN10 based on the concentration of SPN10 administered in the peptide conjugate treatment group); or SPN10(s) in combination with aromatic-cationic peptides (e.g., an equivalent molar dose of SPN10 based on the concentration of SPN10 administered in the peptide conjugate treatment group and an equivalent molar dose of aromatic-cationic peptide based on the concentration of aromatic-cationic peptide administered in the peptide conjugate treatment group) for 4 hours, and then incubated with TMRM and examined by CLSM. It is expected that 3NP-treated cells will display reduced fluorescence compared to control cells, which indicates mitochondrial depolarization.

Assay [1] relates to fatty (fa/fa) Zucker rats. Description: Example 36: insulin resistance in fatty Zucker rats. It counts as in vivo, rat. The following applies: approximately 6 weeks. As for the experimental part:
as §1, with “Peptide” for “Caco-2 cells will be treated with 3NP (10 mM) alone or in the presence of peptide”, “(1.0-5.0 mg/kg body wt);” for “(0.1 μM);”, “group)” for “group) for 4 hours, and then incubated with TMRM and examined by CLSM. It is expected that 3NP-treated cells”, “be administered” for “display reduced fluorescence compared”, “the rats intraperitoneally (i.p.) or orally (drinking water or oral gavage).” for “control cells, which indicates mitochondrial depolarization.”
Physiological parameters measured will include body weight, fasting glucose/insulin/free fatty acid, oral glucose tolerance (OGTT), in vitro muscle insulin sensitivity (in vitro incubation), biomarkers of insulin signaling (Akt-P, IRS-P), mitochondrial function studies on permeabilized fibers (respiration, H2O2 production), biomarkers of intracellular oxidative stress (lipid peroxidation, GSH/GSSG ratio, aconitase activity), and mitochondrial enzyme activity. Control animals will include wild-type and untreated fatty rats. […]

Assay [2] has as its system wild-type (WT) mice, middle cerebral artery occlusion. The assay is described as follows: Cerebral ischemia, no-reflow zone in the brain. It counts as in vivo, mouse. Conditions: i.p. at 0, 6, 24 and 48 hours after ischemia. The procedure:
Cerebral ischemia initiates a cascade of cellular and molecular events that lead to brain damage. One such event is an anatomic zone of no-reflow. Cerebral ischemia will be induced by occlusion of the right middle cerebral artery for 30 minutes. Wild-type (WT) mice will be given either saline vehicle (Veh), peptide conjugate, aromatic-cationic peptide, SPN10, SPN10 and aromatic-cationic peptide (2-5 mg/kg for the peptide conjugate and equivalent molar doses of aromatic-cationic peptide and/or SPN10 based on concentration of the aromatic-cationic peptide or SPN10 administered in the peptide conjugate group) i.p. at 0, 6, 24 and 48 hours after ischemia. Mice will be sacrificed 3 days after ischemia, and the brains sliced transversely into 6-8 sections. Sections will be photographed under ultraviolet light to identify the region of no-reflow. The areas of no-reflow in each slice will be digitized using Image J (supplier Rasband WS, Image J, National Institutes of Health, http://rsb.info.nih.gov/ij/). The areas in each slice will be multiplied by the weight of the slice and the results will be summed in order to obtain the mass of the no-reflow areas.

In a further assay the test system is cell stress recovery. Conditions: Mitchell et al., bioRxiv, cited from earlier work.

SMILES strings stand for the structures. Residues, ends and D or L forms follow the SMILES beside them.

Consider `N=C(N)NCCC[C@H](NC(=O)[C@@H](N)Cc1c[nH]c2ccccc12)C(=O)N[C@@H](Cc1c[nH]c2ccccc12)C(=O)N[C@@H](CCCCN)C(N)=O` [SPN10, H-L-Trp-L-Arg-L-Trp-L-Lys-NH2] (H-WRWK-NH2), for which the “tolerance of mitochondria to cumulative Ca^2+ challenges” value with isolated mitochondria is “dose-dependently increase the tolerance”. In the assay with isolated mitochondria (10 μM pre-treatment for 2 minutes prior to Ca^2+), the “onset of MPT after Ca^2+” value is recorded as “prevent the onset of MPT”. Further, the “onset of MPT induced by 3NP” value with isolated mitochondria (3NP 1 mM) is listed as “dose-dependently delay the onset of MPT”. For the same compound, the “mitochondrial depolarization caused by 3NP” value in the assay with Caco-2 cells is “protect against mitochondrial depolarization”. The “whole body and muscle insulin resistance (treatment)” value in assay [1] (Zucker rats (~12 weeks of age)) is “reduce the whole body and muscle insulin resistance”. Further, the “development of whole body and muscle insulin resistance (prevention)” value in assay [1] (young Zucker rats (~3-4 weeks of age)) was “attenuate or prevent the development of whole body and muscle insulin resistance”. In assay [2], the “anatomic zone of no-reflow in the brain” value is given as “prevent or reduce” and the infarct volume result is given as “significant reduction”. Also, the “potency in cell stress recovery” value in the assay on cell stress recovery (among SS-31, SS-20, SPN4, SPN10) is “greatest potency”. The “performance compared with SS-31 (cell culture assays, structure-activity analysis)” value with cell stress recovery was “consistently outperformed SS-31”.
